Test results as given in publication PMC3406249 (Hepatology (Baltimore, Md.), 2012).
No end group written: not given here.

Columns and labels:
HCVpp (H77) = conditions: 50% cell culture inhibitory concentration, HCVpp entry; mean ± SD
JFH-1 HCVcc = conditions: 12 h
[1] = MTT assay; estimated

Row | Sequence | IC50 (HCVpp (H77)) | IC50 (JFH-1 HCVcc) | 50% cytotoxic concentration relative to IC50 [1]
1 | GAIVSTALPQWRIYSYAG [CL58.6] | 23.8 ± 2.1 µM | – | –
2 | MANAGLQLLGFILAFLGW [CL58] | – | 2000 nM | ~100 fold
